The values below come from PubChem BioAssay (NCI).

Several values for one entry are separate records, joined by “and”; a condition that tells them apart may be missing. Identical values can stand only once.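 Results reflect a 48-hour exposure of cells in 96-well plates to compound at five concentrations. At the GI50, growth is halved. TGI denotes the concentration required for complete inhibition of growth.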 Where only a bound is given, the exact number is not on record here.

Holding throughout (test): NCI tumour cell line growth inhibition, 48 h
In experiment [1] the test system is K-562 leukemia.
Experiment [2] deals with SF-268 CNS.
The test system of experiment [3] is U251 CNS.
The test system of experiment [4] is CAKI-1 renal.
Experiment [5] has as its system NCI-H522 lung.
Experiment [6] concerns UACC-257 melanoma.
The test system of experiment [7] is SK-MEL-5 melanoma.
Experiment [8] relates to HCT-15 colon.
In experiment [9] the test system is UACC-62 melanoma.
The test system of experiment [10] is HS 578T breast.

For the compound `CC(C)N1CCN(c2ccncc2S(=O)(=O)N2CCCCC2)CC1`, the TGI in experiment [1], in [2], in experiment [3], in [4], in experiment [5] and in experiment [6] was more than 100 µM throughout. Further, the TGI in experiment [7], in [8], in experiment [9] and in [10] was more than 100 µM in each case.

Take `CC(=O)O[C@H]([C@H](OC(C)=O)[C@H](C)OC(C)=O)[C@@H](/C=C/[C@@H]1CC=CC(=O)O1)OC(C)=O`: the GI50 is more than 100 µM in [1]; 28.9 µM in [2]; more than 100 µM in experiment [3]; 29.8 µM in experiment [4]; 2.05 µM in [5]; more than 100 µM in experiment [6]. Besides, the GI50 in experiment [7] was 44.5 µM; in [8], 44.2 µM; in experiment [9], more than 100 µM; in [10] it was 54.7 µM. Further, the TGI was more than 100 µM in experiment [1]; more than 100 µM in experiment [2]; more than 100 µM in [3]; 83.6 µM in [4]; 4.73 µM in experiment [5]; more than 100 µM in experiment [6]. Further, the TGI in experiment [7], in experiment [8], in experiment [9] and in experiment [10] was more than 100 µM in each case.

`C=C1CC2(CC(c3ccccc3Cl)OC(c3ccccc3Cl)C2)OC1=O` (centres undefined): the TGI in [1] was more than 25.3 µM; in experiment [2], 5.62 µM; in [3] it was 15.6 µM; in [4] it was 5.11 µM; in [5], 3.3 µM; in experiment [6], 5.14 µM. The TGI came out at 10.4 µM in experiment [7], 5.58 µM in [8], 4.68 µM in experiment [9] and 4.71 µM in [10].

Turning to `COC1C(O)CC(OC2CC(OC3CC(O[C@@H]4C(=O)c5c(cc6cc(OC7CC(OC8CC(O)C(O)C(C)O8)C(O)C(C)O7)c(C)c(O)c6c5O)CC4[C@H](OC)C(=O)O)OC(C)C3O)OC(C)C2O)OC1C` (some centres undefined), the GI50 is 1.96 µM in experiment [1]; 2.64 µM in [2]; 1.53 µM in experiment [3]; 2.6 µM in experiment [4]; 1.7 µM in [5]; 1.94 µM in experiment [6]. The GI50 was 1.34 µM in experiment [7], 6.3 µM in [8], 0.842 µM in experiment [9] and 1.93 µM in experiment [10]. In addition, the TGI was more than 33.3 µM in experiment [1]; more than 33.3 µM in experiment [2]; more than 33.3 µM in experiment [3]; more than 33.3 µM in [4]; more than 33.3 µM in [5]; 13.5 µM in [6]. Besides, the TGI in [7] is 8.74 µM; in experiment [8] it was more than 33.3 µM; in experiment [9] it was 2.54 µM; in experiment [10] it was more than 33.3 µM.

With `CN(CCCCCl)P(=O)(OCCS(=O)(=O)CC(NC(=O)CCC(N)C(=O)O)C(=O)NC(C(=O)O)c1ccccc1)OCC1OC(n2ccc(N)nc2=O)C(O)C1O` (centres undefined), the GI50 was 7.36 µM in experiment [1]; 49.8 µM in [2]; 29.9 µM in experiment [3]; 11 µM in experiment [4]; 10.5 µM in experiment [5]; 21.1 µM in experiment [6]. In addition, the GI50 in experiment [7] is 20.4 µM; in experiment [8], more than 75 µM; in experiment [9], 35.8 µM; in experiment [10], more than 36.8 µM. Besides, the TGI in experiment [1] was more than 75 µM; in experiment [2], more than 75 µM; in experiment [3] it was more than 75 µM; in [4] it was more than 75 µM; in experiment [5], more than 75 µM; in experiment [6], more than 69.8 µM. Besides, the TGI in [7], in [8], in experiment [9] and in experiment [10] was more than 75 µM each time.

Take `CCCCOC(=O)c1ccc(N)cc1`: the GI50 in experiment [1] is 6.66 µM; in experiment [2], 71.1 µM; in experiment [3], more than 100 µM; in experiment [4], 11.4 µM; in experiment [5] it was 54.1 µM; in experiment [6] it was 52.2 µM. For the same compound, the GI50 in experiment [7] was 27.8 µM; in experiment [8], 8 µM; in experiment [9], 17.9 µM; in experiment [10], 96.1 µM. In addition, the TGI in [1], in experiment [2], in experiment [3], in experiment [4], in experiment [5] and in experiment [6] was more than 100 µM in each case. For the same compound, the TGI in experiment [7], in [8], in experiment [9] and in experiment [10] was more than 100 µM throughout.

Turning to `CC/C=C\C[C@H](F)C/C=C1/C(=O)C=C[C@@H]1C/C=C\CCCC(=O)OC`, the GI50 is 1.49 µM in experiment [1]; 1.86 µM in [2]; 1.86 µM in [3]; 1.87 µM in experiment [4]; 1.32 µM in [5]; 2.75 µM in experiment [6]. Moreover, the GI50 in experiment [7] is 1.29 µM; in [8], 1.19 µM; in experiment [9], 0.948 µM; in experiment [10] it was 3.51 µM. For the same compound, the TGI was 6.19 µM in experiment [1]; 7.23 µM in experiment [2]; 6.57 µM in experiment [3]; 6.82 µM in [4]; 5.08 µM in [5]; 10.1 µM in [6]. Also, the TGI was 3.13 µM in experiment [7], 4.42 µM in experiment [8], 2.1 µM in experiment [9] and 21 µM in [10].

Regarding `CCN(CC)CCCC(C)Nc1ccnc2cc(Cl)ccc12` (centres undefined), the GI50 in [1] was 22.6 µM; in [3], more than 100 µM; in experiment [4], 28.8 µM; in experiment [5] it was more than 100 µM; in [6], 19.8 µM; in experiment [7], 21.9 µM. In addition, the figures for the GI50 in experiment [8], in experiment [9] and in experiment [10] were 57.9 µM, 37.6 µM and more than 100 µM, respectively. Also, the TGI in experiment [1] was 88.2 µM and 32.4 µM; in experiment [2], more than 100 µM; in experiment [3] it was > 100 µM and 66.1 µM; in experiment [4], 79.7 µM and 55.7 µM; in [5], more than 100 µM; in experiment [6], 35.7 µM and > 62.1 µM. Also, the TGI in [7] was 48.2 µM and 63.3 µM; in experiment [8], more than 100 µM; in [9], more than 100 µM; in experiment [10], more than 100 µM.
